The results in this text go back to patent US9844506B2, “Compositions and methods for affecting mood states” (priority 2013, dated 2017).

A short description of series [1]: Interaction of nitric oxide with carriers, weight gain on bubbling NO gas (Example 2). The series is classed as physicochemical. The settings on record: NO bubbled 40 hr, 25° C. On the procedure:
In this example, six experiments were carried out to investigate the interaction of nitric oxide with three carriers (HNC 157-62, HNC 157-65, and HNC 157-69) as well as with 1,3-propanediol, using experimental conditions similar to that described for Example 1. In addition three experiments were performed to prepare carriers containing 800 ppm and 500 ppm nitric oxide. HNC 157-62 was formed of 65% Phospholipon-90G (American Lecithin Company), 18% isopropyl palmitate (Kraft Chemicals), 8% capric caprylic triglycerides (RITA Corp.), and 9% propanediol (Dupont). HNC 157-65 was formed of 65% Phospholipon-90G, 13% isopropyl palmitate, 14% capric caprylic triglycerides, 3% propanediol, and 5% dimethyl isosorbide (Croda). HNC 157-69 was formed from 65% Phospholipon-90G, 16% isopropyl palmitate, and 19% capric caprylic triglycerides.
The compositions were generally prepared as follows. Isopropyl palmitate, capric caprylic triglyceride, propanediol (for HNC 157-62 and HNC 157-65), and dimethyl isosorbide (for HNC 157-65) were mixed together and warmed to 40° C. Phospholipon-90G was then gradually added to this liquid mixture by mixing it. Phospholipon-90G is typically received as individual pellets, and is mixed into the solution until fully dissolved. The mixture was subsequently filtered through a sieve to remove any undissolved Phospholipon-90G. […]

The test system of series [2] is microcirculation of the skin. Kind of series: Laser Doppler capillary blood flow in human female subjects, 10,000 ppm NO in closed chamber (Example 5). Format: in vivo. The following applies: applied to skin at 1/10% in alcohol. The text has this:
The formulation used in these studies contained nitric oxide dispersed in a lipid matrix. […] Nitric oxide is a very rapid acting molecule, and these studies used a system that employed laser Doppler with a covered chamber. The formulation was placed into the chamber and then attached to the skin by an adhesive layer on the covering. This provided a stable measuring device as determined by multiple normal evaluations of the capillary blood flow without treatment of nitric oxide.
A known positive control, methyl nicotinate, was applied to the skin at a concentration of 1/10% in alcohol. […] The vascular dynamics are such that when the blood vessels dilate physical parameters follow Bernoulli's law. This states that as one increases the diameter of a tube containing a liquid to flow will increase but the pressure and the speed of the liquid will decrease. The laser Doppler device accurately measured these parameters.
The test product was labeled as 10,000 ppm NO (nitric oxide). The study participants had 100 mg of the test product applied in a closed Hilltop chamber on the forearm. […]
A Moor Instruments DRT4 Laser Doppler Blood Flow Monitor (Devon, England) was used in these studies. The laser Doppler technique measured blood flow in the microcapillaries of the skin that are close to the skin surface and the blood flow in underlying arterioles and venules that help to regulate skin temperature. […]

Series [3] has as its system cutaneous vascular system. In words: Laser Doppler circulation in five human subjects, 10,000 ppm NO formulation (Example 8). Format: in vivo. The following applies: positive control formulation containing 0.1% methyl nicotinate. From the text: This example illustrates delivery of nitric oxide formulations to five human subjects, using procedures and formulations similar to those discussed in Example 5. Each person served as their own control for the testing. A Moor Instruments Laser Doppler was used to determine circulation. […] The formulations used produce positive, almost immediate results when applied to the skin which, in these studies, was manifested by vasodilatation of the cutaneous vascular system.
For each subject, the following creams were applied: a negative control formulation (containing no NO), 0.010 gram of a 10,000 ppm NO formulation, 0.020 gram of a 10,000 ppm NO formulation, and a positive control formulation containing 0.1% methyl nicotinate. The formulations were prepared using procedures similar to those discussed in Example 1.

Consider `OCCCO` [1,3-Propanediol, 1,3-propanediol], for which, in series [1], the “% Wt. gain” value came to 0.09% and the “Wt. Gain” value came out at 0.16 g.
Take `COC(=O)c1cccnc1` [methyl nicotinate]: in series [2], the “laser Doppler response to positive control” value is reported as “rapid response typical of the vasodilator”. For the same molecule, the “vasodilatation versus control untreated skin” value in series [3] is recorded as “vasodilatation was observed”.
